In brackets after ≈: the same amount, converted by molar mass. Activity calls are given as the source filed them. The calls are words filed in the database; no cut-off is given here.
Key:
[1] = Cytotoxicity against CHOK1 cells; format: cell-based, Cricetulus griseus; details: chinese hamster, CHO-K1 cells; read-out: ED50 (the source's name)
[2] = test system: Klebsiella pneumoniae; experiment: Antimicrobial activity against Klebsiella pneumoniae; format: functional, organism-based
[3] = test system: Human immunodeficiency virus; experiment: Antiviral activity against HIV; format: functional, organism-based

CCCC(=O)O[C@H]1[C@@H]2[C@@H]3[C@@H](C[C@H]1C)[C@@H](C)CO[C@@]1(C)CC/C=C(\C)C[C@@H]2O[C@@H]31 [4-DEOXYASBESTININ A]
CC50 [1]: 3.35 µg/mL (≈ 8.58 µM)
Activity [2]: Active

CC(=O)O[C@H]1[C@@H]2[C@@H]3[C@@H](C[C@H]1C)[C@@H](C)CO[C@@]1(C)CC/C=C(/C)C[C@@H]2O[C@@H]31
CC50 [1]: 4.82 µg/mL (≈ 13.3 µM)
Activity [2]: Active

CC(=O)O[C@H]1[C@@H]2[C@@H]3[C@@H](C[C@H]1C)[C@@H](C)CO[C@@]1(C)CC/C=C(\C)C[C@@H]2O[C@@H]31 [11-ACETOXY-4-DEOXYASBESTININ B]
CC50 [1]: 2.5 µg/mL (≈ 6.9 µM)
Activity [2]: Active
Activity [3]: inactive

CCCC(=O)O[C@H]1[C@@H]2[C@@H]3[C@@H](C[C@H]1C)[C@@H](C)CO[C@@]1(C)CC/C=C(/C)C[C@@H]2O[C@@H]31
CC50 [1]: 3.55 µg/mL (≈ 9.09 µM)
Activity [2]: Active

From ChEMBL document CHEMBL1158992, “Application of two-dimensional nmr spectroscopy in the structural determination of marine natural products. Isolation and total structural assignment of 4-deoxyasbestinin diterpenes from the Caribbean gorgonian Briareum asbestinum” (J Nat Prod, 1991)
